Source: patent publication US9540299B2, “MTOR-independent activator of TFEB for autophagy enhancement and uses thereof” (Hong Kong Baptist University, priority 2015, dated 2017)

Test system: SH-SY5Y cells
Assay: Western blot of TFEB, LC3-II, LAMP1, CTSD in SH-SY5Y cells
Format: cell-based, human
Conditions: SH-SY5Y cells, 0.5, 1 μM, 12 h
Method: Various gene expressions in Hela cells (FIG. 7A) and SH-SY5Y cells (FIG. 7B) after treated with C1 (1 μM) for 12 h. mRNA transcript abundance is assessed by real-time PCR using specific primers for the indicated genes. Relative quantification (RQ) is presented as means±SD of three independent experiments. FIG. 7C is western blot showing the protein levels of autophagy marker (LC3-II), TFEB and lysosome markers (LAMP1, CTSD) in Hela and SH-SY5Y cells having treated with C1 (0.5, 1 μM) or sucrose (100 mM) for 12 h. The relative intensity of autophagy marker (LC3-II), TFEB and lysosome markers (LAMP1, CTSD) normalized to that of ACTB/β-actin in Hela cells (FIG. 7D) and SH-SY5Y cells (FIG. 7E). Data are presented as the mean±SD from three independent experiments. *p<0.05 vs. the control (0.1% DMSO). […] Autophagy-enhancing effect of C1 is TFEB-dependent. Data are presented as the mean±SD from three independent experiments. *p<0.05 vs. the control. N. S.=not significant.
N2a, Hela and Hela cells stably expressing 3×-Flag-TFEB are cultured in DMEM supplemented with 10% FBS. SH-SY5Y cells are cultured in DMEM/F12 supplemented with 10% FBS. […]
Cells are lysed on ice in 1× Lysis Buffer (9803, Life Technologies) with complete protease inhibitor mixture (04693124001, Roche Applied Science). […] The protein signals are detected by ECL kit (32106, Pierce) and quantified using ImageJ software.

## COc1ccccc1/C=C/C(=O)/C=C/c1ccccc1OC [C1, 1,5-bis(2-methoxyphenyl)penta-1,4-dien-3-one]
  autophagy/lysosomal biogenesis (LC3-II, LAMP1, CTSD protein levels): activated
  protein levels of TFEB: increased
